Data on five compounds can be found in patent US11541237B2, “Methods for improving shoulder range of motion and functionality” (priority 2013, dated 2023).

Data set [1] relates to A (delta) and C sensory fibers. The conditions noted are these: cited from earlier work; for sensory blocking properties: compared with the corresponding R (dextro)-enantiomers.
The test system of data set [2] is Supratrochlear nerve / occipital nerves with SPG. The data set is described as follows: Injection of supratrochlear or occipital nerves combined with SPG block. In kind it is in vivo, human. From the text: Another aspect of the invention is the combination of stimulation of SPG with branches of Trigeminal nerves, or occipital nerves. There is known C-2 and 3 connection with Trigeminal nerve and SPG and likely with C1.

For data set [3], the system named is facial pain / facial neuropathies. In words: Intranasal local anesthetic in patients with facial pain after facial trauma (Examples 4-6). The class given is in vivo, human. The procedure: A patient had severe facial pain following a large metal beam impact which left them with facial neuropathies and headache that adversely affected their ability to eat and speak was treated with intranasal bupivacaine 0.5% (4 ml). […] They improved with subsequent repeat treatments and was able to perform job and daily activities normally. […] A patient with severe facial pain resulting from being hit in the face with a pipe that caused four facial fractures, for seven years had numbness in certain areas of their face and severe pain in the area of their left eye, as well as generalized facial and head pain. They were treated with intranasal bupivacaine 0.5% (4 ml). […] A patient had sustained facial nerve injuries from a close range gunshot wound to the face. They were in excruciating pain and could not speak or eat without severe duress. […] They had been in agony for over 5 years previous to this treatment.

The subject of the next data set is radial nerve. In words: Injection in fanlike distribution of the radial nerve, patient with CRPS of right hand (Example 3). The class given is in vivo, human. The conditions noted are these: single treatment, bupivacaine 0.25% (3 ml). From the text: A patient with CRPS and severe pain, including pins and needles sensation in their right hand for over 20 years, presented with these symptoms and major discoloration in their right arm due to compartment syndrome many years ago and could barely open and close their fist.

The test system of data set [4] is suprascapular nerve. In words: Direct suprascapular injection and subsequent fanlike injection, patient with CRPS of left arm and hand with frozen shoulder syndrome (Example 7). In kind it is in vivo, human. The conditions noted are these: lidocaine 1% (4 ml) together with methylprednisolone acetate (10 mg), direct suprascapular then fanlike injection, a few treatment sessions. An excerpt:
A patient had severe CRPS of the left arm and hand with frozen shoulder syndrome and severe edema, allodynia coldness and nail changes involving their left hand for over 18 months. Their condition is shown in the photographs of FIGS. 6 and 7. They failed all therapies to the time of presentation.

The subject of data set [5] is suprascapular nerve. In words: Fanlike injection in the vicinity of the suprascapular nerve, patient with pain and decreased range of motion after rotator cuff repair (Example 1). In kind it is in vivo, human. The note with it: many months after torn rotator cuff repair, lidocaine 1% (3 ml). The procedure: A patient with pain and decreased range of motion for many months following repair of a torn rotator cuff, was treated using a fanlike injection of lidocaine 1% (3 ml) merely in the vicinity of the suprascapular nerve, hitting small fibers in the area.
This block differs from classic suprascapular block in that the area around the nerve was targeted and treated, rather than the nerve itself. This procedure was easier to perform than trying to block the suprascapular nerve directly, which would have been much more difficult to target or specific, direct treatment. In terms of neurostimulation, or blocking with energy sources such as light, laser, infrasound or electricity, it means that transcutaneous methods can work well by targeting the area around a major nerve, or merely within its general area of innervation, and not necessarily the nerve itself.

For data set [6] the following is noted: intranasally administered; cited from earlier work.
The conditions of data set [7]: cited from earlier work.
A further data set concerns migraine. The note with it: direct application to region of nasal epithelium overlying the SPG using a cotton swab, versus drip and spray methods; cited from earlier work.
A further data set has as its system saphenous nerve. The data set is described as follows: Saphenous nerve injection, patient with severe leg and foot pain due to surgical trauma (Example 2). The class given is in vivo, human. The conditions noted are these: ropivacaine 0.25% (5 ml). The procedure: A patient with severe leg and foot pain for several years due to prior surgical trauma resulting from an initial bunionectomy and other follow-up surgeries was treated by a saphenous nerve injection of ropivacaine 0.25% (5 ml) after exquisite tenderness was noted on palpation of the saphenous nerve greater than 14 cm proximal to the level of their foot trauma. However, much of their symptomatology was in the distribution of other nerves. Indeed, they had motor dysfunction of the toes and their saphenous nerve is a purely sensory nerve. […] They could walk like they had not in many years.

[8] abbreviates: Example 4, patient, metal beam impact, intranasal bupivacaine 0.5% (4 ml).

Consider `CCCN1CCCC[C@H]1C(=O)Nc1c(C)cccc1C` (single isomer, unassigned) [S (levo)-enantiomer of ropivacaine], for which, in data set [1], the sensory blocking properties entry is recorded as “better sensory blocking properties”.

With `CCCCN1CCCCC1C(=O)Nc1c(C)cccc1C` (stereo not drawn) [bupivacaine], the “result of subsequent SPG block” value in data set [2] (injection of bupivacaine 0.5% to the Supratrochlear nerve) was “better result with SPG block subsequently”. The headache entry in data set [2] (injection of occipital nerves with 0.5%, with SPG block) is reported as “headache was further decreased with SPG block”. Besides, the relief of pain result in data set [3] (setting [8]) is reported as “almost complete relief of pain”; in [3] (Example 5, patient, intranasal bupivacaine 0.5% (4 ml)), “complete relief of pain”. Besides, the “time to reported pain relief” value was no more than 3 min in data set [3] (setting [8]) and no more than 1 min in [3] (Example 5, patient, four facial fractures, pain for seven years, intranasal bupivacaine 0.5% (4 ml)). Besides, the “ability to open mouth, eat and speak” value in data set [3] (Example 4, patient, intranasal bupivacaine 0.5% (4 ml)) was “could open their mouth wide, eat normally and could speak for normal periods of time and at normal volume”. Further, the pain management entry in data set [3] (Example 6, patient, gunshot wound to the face, intranasal bupivacaine 0.5% (3-4 ml) monthly, several years follow up) was “manages their pain well”. Also, the adverse sequela entry in [3] (Example 6, intranasal bupivacaine 0.5% (3-4 ml) monthly, several years follow up) is recorded as “no adverse sequela”. In addition, in the data set with radial nerve (patient with CRPS over 20 years, fanlike distribution of radial nerve), the “symptoms and hand function” value is “felt dramatically better and could open and close their hand and make and maintain a fist”. Besides, in the data set on radial nerve (patient with CRPS), the “neurotrophic findings of decreased temperature, edema, allodynia, discoloration and severe restriction of range of motion” value is on record as “decreased dramatically”.

`CCN(CC)CC(=O)Nc1c(C)cccc1C` [lidocaine]: in the data set on suprascapular nerve [4], the “symptoms and findings of CRPS (frozen shoulder, edema, allodynia, coldness, nail changes)” value was “completely reversed these symptoms and findings”. In addition, the “pain and range of motion” value in the data set with suprascapular nerve [5] was “remarkable improvement in pain and range of motion”. The duration of action result in data set [6] is listed as “shorter than about one hour”.

As to `CCCN1CCCC[C@H]1C(=O)Nc1c(C)cccc1C` [ropivacaine], the “cardiovascular and central nervous system toxicity” value in data set [7] (compared with bupivacaine) is “lower cardiovascular and central nervous system toxicity than bupivacaine”. For the same compound, the systemic toxicity profile entry in data set [7] (compared with other similar relatively long acting potent local anesthetics) is “better systemic toxicity profile”. For the same compound, the “block of nerve fibers such as A (delta) and C sensory fibers versus motor neurons” value in [1] (compared with bupivacaine) is “more preferentially than other neurons such as motor neurons”. Also, the inhibition of migraine entry in the data set on migraine is “most rapid and most effective inhibition of migraine”. In addition, in the data set on saphenous nerve, the relief of pain entry is given as “almost complete relief of pain”; the “sensation and strength in the distribution of other peripheral nerves, including the peroneal nerves” value was “normalized sensation and strength”; the “time to reported pain relief” value was no more than 10 min.

As to `CCCCN1CCCC[C@H]1C(=O)Nc1c(C)cccc1C` [S (levo)-enantiomer of bupivacaine], in data set [7] (compared with the corresponding R (dextro)-enantiomers), the physiological toxicity result is “lower physiological toxicity”. The sensory blocking properties entry in data set [1] was “better sensory blocking properties”.
